Experimental data as given in patent US20080081781A1, “Methods and compositions for the treatment of metabolic syndrome” (priority 2004, published 2008).
Read-outs that look alike come from different tables or passages of the source.

Assays:
[1] = in vivo; conditions: beagle, dog, iv, 100 mg/kg
Procedure: Four beagles were injected intravenously with 100 mg/kg of berberine. Using a two compartment model, the pharmacokinetic parameter estimates were as follows: […]

[2] = in vivo; conditions: rabbit, 50 mg/kg
Procedure: 50 mg/kg of berberine was administered through stomach infusion to six rabbits. Serum samples were taken at various points after administration and RP-HPLC was used to measure the drug concentration.

[3] = test system: rat model subjects; assay: Combinatorial anti-hyperlipidemia efficacy of berberine and lovastatin in rats (Table 9); assay type: in vivo
[4] = test system: hyperglycemic rats; assay: Hyperglycemic HFHC diet/streptozotocin Wistar rats: blood glucose, serum insulin, ISI, serum lipids; assay type: in vivo, Wistar rat; conditions: for reduction of fasting blood glucose vs untreated rats on same HFHC diet: 14 days
Procedure: Nineteen Wistar rats (Male, 250g, the Institute of Experiment Animal Sciences, Chinese Academy of Medical Sciences, Beijing) were fed high fat and high cholesterol (HFHC) diet containing 25% lard, 20% sucrose and 5% yolk powder (Institute of Experiment Animal Sciences) for 4 weeks to induce insulin resistance status. Then, after fasting for 24 hours, 20 mg/kg of streptozotocin (Sigma) dissolved in 0.01 M citric acid buffer (pH 4.3) was injected via the tail vein. A week later, rats with blood glucose concentrations over 11.1 mmol/L were considered hyperglycemic and divided into two groups of 7 and one group of 5 as the control.
The rats in the two groups of 7 were treated with berberine orally twice a day for 14 days, at 8:00 am and 5:00 pm, with a total dose of berberine at 75 mg/kg/day or 150 mg/kg/day, respectively. Blood samples were taken by tail snip after 4 hours fasting on indicating days of treatment, and blood glucose was measured. On the last day of the experiment, all of the rats fasted overnight and were then sacrificed.
(§1) The livers were dissected and stored in liquid nitrogen for RNA extraction, real-time RT-PCR and PKC activity assay. Total blood samples were also collected to assay fasting blood glucose and serum insulin levels. The insulin levels were analyzed using radio-immunoassay (Linco Research, St Charles, Mo.). The insulin sensitivity indexes (ISI) were calculated according to the formula: 10^4/(fasting serum insulin X fasting blood glucose) (Hanson, Am. J. Epidemiol. 15 1(2), 190-198 (2000)). The insulin level and ISI of normal rats were also determined for comparison. […] It also elevated the fasting blood glucose from 7 to 12.8 mmol/L (P<0.001).

[5] = test system: InsR mRNA; assay: Rat liver InsR and LDLR mRNA (quantitative real time RT-PCR); assay type: in vivo; conditions: rats, 14 days
Procedure: as §1
Liver mRNA extracts were used for quantitative real time RT-PCR assay. Total cellular RNA was reverse-transcribed into cDNA using the Reverse Transcription System (Promega, Madison, Wis.). Quantitative real-time PCR were performed with these cDNA using the Applied Biosystems 7500 Real-Time PCR System and TaqMan® Universal PCR Master Mix (Applied Biosystems, Foster City, Calif.). […] 2.5 μl of cDNA sample, 12.5 μl of Universal PCR Master Mix, and 1.25 μl of TaqMan® Gene Expression Assay reagent were mixed in a 25 μl reaction system, and the comparative CT method was used in relative gene quantification using the TaqMan® SDS analysis software. […]

[6] = test system: hyperlipidemia patients; conditions: for Cholesterol / HDL Protein / LDL Protein / Triglycerides: hyperlipidemia patients, n = 32
Procedure: After three months, fasting serum concentrations of cholesterol, triglycerides, HDL and LDL were measured using standard blood lipid tests.

[7] = test system: rats; conditions: rat, in vivo
[8] = high fat diet rats treated for 15 days, berberine 80 mg/kg/day, lovastatin 10 mg/kg/day
[9] = high fat diet rats, Day 0 (untreated rats, baseline)
[10] = 150 mg/kg/day, 14 day treatment
[11] = After berberine treatment (3 months)
[12] = Before berberine treatment (baseline)

COc1ccc2cc3[n+](cc2c1OC)CCc1cc2c(cc1-3)OCO2 [berberine]
AUC [1]: 1980 ± 1140 ng·h/mL
clearance [1]: 1010 mL/min
half-life [1]: 12.6 ± 8.83 h
peak time Tpeak [2]: 0.63 ± 0.25 h
AUC ([2]; po): 492 ± 296 ng·h/mL
Cmax ([2]; po): 92.7 ± 50.9 ng/mL
half-life ([2]; po): 3.11 ± 0.58 h
Cholesterol Day 15 [3, 8]: 2.75 mmol/L
LDL Day 15 [3, 8]: 1.7 mmol/L
Cholesterol Day 0 [3, 9]: 3.65 mmol/L
LDL Day 0 [3, 9]: 2.25 mmol/L
reduction of fasting blood glucose vs untreated rats on same HFHC diet ([4]; 75 mg/kg/day orally): 22%
reduction of fasting blood glucose vs untreated rats on same HFHC diet ([4]; 150 mg/kg/day orally): 33%
reduction of LDL-c vs control animals on same HFHC diet [4, 10]: 33%
reduction of cholesterol vs control animals on same HFHC diet [4, 10]: 25%
reduction of triglyceride vs control animals on same HFHC diet [4, 10]: 24%
fasting serum insulin levels ([4]; insulin resistant HFHC rats): significantly reduced the serum insulin levels
increase in InsR mRNA in the livers ([5]; 75 mg/kg/day): 1.8 fold
increase in InsR mRNA in the livers ([5]; 150 mg/kg/day): 2.3 fold
kidney functions (creatine, blood urea nitrogen, total bilirubin) ([6]; human, in vivo): did not change kidney functions
reduction of alanine aminotransaminase ([6]; human, in vivo): approximately 48%
reduction of aspartate aminotransaminase ([6]; human, in vivo): ~36%
reduction of gamma glutamyl transpeptidase ([6]; human, in vivo): ~41%
side effects ([6]; human, in vivo): no side effects were observed with the exception of one patient having mild constipation during treatment
Cholesterol [6, 11]: 4.2 ± 0.9 mmol/L
HDL Protein [6, 11]: 1.1 ± 0.3
LDL Protein [6, 11]: 2.4 ± 0.6 mmol/L
Triglycerides [6, 11]: 1.5 ± 0.9 mmol/L
Cholesterol [6, 12]: 5.9 ± 0.7 mmol/L
HDL Protein [6, 12]: 1.1 ± 0.3
LDL Protein [6, 12]: 3.2 ± 0.7 mmol/L
Triglycerides [6, 12]: 2.3 ± 1.8 mmol/L
birth defects [7]: No birth defects were evident
